Data from ChEMBL document CHEMBL4270619, “Mycobacterial siderophore: A review on chemistry and biology of siderophore and its potential as a target for tuberculosis” (Eur J Med Chem, 2018).

test: Stability in human plasma; format: ADME, cell-free; conditions: not given

| SMILES | Stability |
| --- | --- |
| CCN(CC)CC.Nc1ncnc2c1ncn2[C@@H]1O[C@H](COS(=O)(=O)NC(=O)c2ccccc2O)[C@@H](O)[C@H]1O | 100% |

test: Stability in rat plasma; format: ADME, cell-free; conditions: not given

| SMILES | Stability |
| --- | --- |
| CCN(CC)CC.Nc1ncnc2c1ncn2[C@@H]1O[C@H](COS(=O)(=O)NC(=O)c2ccccc2O)[C@@H](O)[C@H]1O | 100% |

test: Efflux ratio of apparent permeability from basolateral to apical over apical to basolateral side in human Caco2 cells; format: ADME, cell-based; conditions: caco-2

| SMILES | Ratio |
| --- | --- |
| CC(=O)O[C@H]1[C@@H](F)[C@H](n2cnc3c(N)ncnc32)O[C@@H]1COS(=O)(=O)NC(=O)c1ccccc1O.CCN(CC)CC | 1.5 to 8.5 |
| CCCC(=O)O[C@H]1[C@@H](F)[C@H](n2cnc3c(N)ncnc32)O[C@@H]1COS(=O)(=O)NC(=O)c1ccccc1O.CCN(CC)CC | 1.5 to 8.5 |
| CCCCC(=O)O[C@H]1[C@@H](F)[C@H](n2cnc3c(N)ncnc32)O[C@@H]1COS(=O)(=O)NC(=O)c1ccccc1O.CCN(CC)CC | 1.5 to 8.5 |
| CC(C)C(=O)O[C@H]1[C@@H](F)[C@H](n2cnc3c(N)ncnc32)O[C@@H]1COS(=O)(=O)NC(=O)c1ccccc1O.CCN(CC)CC | 1.5 to 8.5 |
| CCC(=O)O[C@H]1[C@@H](F)[C@H](n2cnc3c(N)ncnc32)O[C@@H]1COS(=O)(=O)NC(=O)c1ccccc1O.CCN(CC)CC | 1.5 to 8.5 |
| CCC(CC)C(=O)O[C@H]1[C@@H](F)[C@H](n2cnc3c(N)ncnc32)O[C@@H]1COS(=O)(=O)NC(=O)c1ccccc1O.CCN(CC)CC | 1.5 to 8.5 |
| CCCCCCCCCCCC(=O)O[C@H]1[C@@H](F)[C@H](n2cnc3c(N)ncnc32)O[C@@H]1COS(=O)(=O)NC(=O)c1ccccc1O.CCN(CC)CC | 1.5 to 8.5 |
| CCCCCCCC(=O)O[C@H]1[C@@H](F)[C@H](n2cnc3c(N)ncnc32)O[C@@H]1COS(=O)(=O)NC(=O)c1ccccc1O.CCN(CC)CC | 1.5 to 8.5 |
